In ChEMBL document CHEMBL1201862, “PubChem BioAssay data set” (2004):
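These data come from cells grown in 96-well plates and exposed to compound for 48 hours at five concentrations. GI50 is the concentration that inhibits growth by half.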 Activity calls are given as the source filed them. Rule as the data show it: active = GI50 up to about 1.1 µM and inactive = higher. Peptide text beside a SMILES is read from it.

How the values were obtained:
Assay in all cases: NCI-60 cell line screen, 48 h
T47D = test system: T47D
KM-20L2 = test system: KM-20L2
RXF 631 = test system: RXF 631
HOP-18 = test system: HOP-18
M19-MEL = test system: M19-MEL
XF498 = test system: XF498
SNB-78 = test system: SNB-78
LXFL 529 = test system: LXFL 529
DMS-114 = test system: DMS-114

Measured: GI50

CC(C)CC(NC(=O)C(CC(C)C)NC(=O)C(Cc1c[nH]cn1)NC(=O)C(C)NC(=O)C(NC(=O)C(C)NC(=O)C(Cc1c[nH]c2ccccc12)NC(=O)C(CCC(=O)O)NC(=O)C(N)Cc1ccccc1)C(C)C)C(N)=O (configuration not stated) (H-FEWAVAHLL-NH2; configuration not given here)
inactive: T47D > 12.5 µM | KM-20L2 > 100 µM | RXF 631 > 100 µM | HOP-18 > 100 µM | M19-MEL > 100 µM | XF498 > 100 µM | SNB-78 > 100 µM | LXFL 529 > 100 µM | DMS-114 > 100 µM

C=C1C(=O)OC2CCCCC3OC3C12 (configuration not stated)
inactive: KM-20L2 10.1 µM | RXF 631 6.19 µM | HOP-18 11 µM | M19-MEL 11.6 µM | XF498 12 µM | SNB-78 19.4 µM | LXFL 529 7.26 µM

COc1ccc(C(c2c(O)c3ccccc3n(C)c2=O)c2c(O)c3ccccc3n(C)c2=O)cc1
inactive: KM-20L2 21.3 µM | RXF 631 21.3 µM | HOP-18 35.7 µM | M19-MEL 98.4 µM | XF498 99.8 µM | SNB-78 7.16 µM | LXFL 529 46.1 µM | DMS-114 63.1 µM

O=C1COc2cc(NC(=S)Nc3ccccc3)ccc2N1
inactive: KM-20L2 > 100 µM | RXF 631 > 100 µM | HOP-18 > 100 µM | M19-MEL > 100 µM | XF498 > 100 µM | SNB-78 > 100 µM | LXFL 529 > 100 µM | DMS-114 > 100 µM

COc1cc(C(=O)C/C(CCCC(=O)Nc2ccccc2[N+](=O)[O-])=N/NC(=O)c2cc3ccccc3cc2O)ccc1O
inactive: KM-20L2 27.4 µM | RXF 631 > 71.4 µM | HOP-18 6.24 µM | XF498 > 100 µM | SNB-78 > 63.8 µM

CCOC(=O)C(=O)Nc1c(C)cccc1C(C)(C)C
inactive: KM-20L2 > 100 µM | RXF 631 > 100 µM | HOP-18 > 100 µM | M19-MEL > 100 µM | XF498 > 100 µM | SNB-78 > 100 µM | LXFL 529 > 100 µM | DMS-114 > 100 µM

Cc1cc(N(CCC#N)CCC#N)ccc1/C=C(\N=[N+]=[N-])C(=O)NC(=O)COc1ccccc1
inactive: KM-20L2 > 100 µM | RXF 631 > 100 µM | HOP-18 > 100 µM | XF498 34.7 µM | SNB-78 > 61.7 µM | LXFL 529 > 100 µM | DMS-114 > 100 µM
